Assay results: US20220281899A1, “COMPOUND AND FLUORESCENTLY LABELED BIOLOGICAL SUBSTANCE USING THE SAME” (FUJIFILM Corporation, priority 2019, published 2022)

What was measured:
Assay type in all cases: physicochemical
[1] = Evaluation of fluorescence quantum yield (PBS solution, pH 7.4); conditions: compound
Protocol: A PBS solution (pH 7.4) of the above compound was evaluated according to the method described in the following reference document.
“A Guide to Recording Fluorescence Quantum Yields” (a HORIBA Scientific document, available from https://www.horiba.com/fileadmin/uploads/Scientific/Documents/Fluorescence/quantumyields trad.pdf)
In the present test, it is preferable that the fluorescence quantum yield satisfies the evaluation rank “B” or higher from the viewpoint of practicality as the fluorescent compound.
B: 0.7 or more and less than 0.9
C: 0.5 or more and less than 0.7
D: 0.3 or more and less than 0.5
F: not evaluable due to low water solubility
(§1) The water solubility and the fluorescence quantum of the labeled antibody were evaluated according to the same methods as those described in Example 1 except that in the evaluation of the water solubility and the fluorescence quantum yield in Example 1, the sample for measurement was changed from the compound to the labeled antibody.

[2] = Evaluation of water solubility (PBS pH 7.4, UHPLC concentration of filtrate); conditions: compound; PBS pH 7.4, 1% DMSO, 200 μM if completely dissolved
Protocol: 5 μL of a DMSO solution having a concentration of 20 mM of the above compound (hereinafter, referred to as a sample) and 495 μL of PBS having a pH of 7.4 were added and mixed in a 1.5 mL Eppendorf tube and stirred with a multi-shaker MS300 (product name, AS ONE Corporation) at 2,000 rpm for 30 minutes. The obtained mixed solution was allowed to be left for 60 minutes with light shielding and then subjected to centrifugal precipitation (12,000 rpm, 5 minutes). For the filtrate filtered using a filter having a pore diameter of 0.20 μm, the sample concentration was measured with Nexera UHPLC [product name, manufactured by Shimadzu Corporation, column: Shim-pack XR-ODSII] (the sample concentration is 200 μM in a case where the sample is completely dissolved) and evaluated based on the following evaluation standards.
In the present test, it is determined that a compound has passed the evaluation of the water solubility in a case where the compound has a rank “B” or higher.
B: 10 μM or more and less than 100 μM
C: 1 μM or more and less than 10 μM […]
as §1

[3] = Evaluation of light resistance in aqueous solution (xenon lamp exposure, absorbance decrease); conditions: compound; PBS pH 7.4; xenon lamp 22 mW/cm^2
Protocol: The above compound or labeled antibody (hereinafter, referred to as a sample) was dissolved in PBS having a pH of 7.4 so that the absorbance at the absorption wavelength peak was 0.095 to 0.105. In a state of being exposed to light using a merry-go-round type light irradiator, the obtained solution was subjected to the temporal measurement of the absorbance of the absorption wavelength peak of the sample with a spectroscope (manufactured by Agilent Technologies, Inc., product name: Agilent 8453).
For the light exposure using the merry-go-round type light irradiator, a xenon lamp UXL-500D-O (product name) manufactured by Ushio, Inc. was used, and an HA-50 filter and a Y44 filter manufactured by HOYA were used as sharp cut filters (both are product names), where the light exposure intensity was 22 mW/cm^2 (in terms of 500 nm conversion).
The absorbance at the absorption peak wavelength before light exposure was set to 100% and the light exposure time until the absorbance at this absorption peak wavelength decreases by 50% (the absorbance at the absorption peak wavelength reaches 50%) was measured. The results were evaluated based on the following evaluation standards. A high evaluation rank is highly preferable since stability is kept for a long time.
B: 60 hours or more and less than 80 hours
C: 40 hours or more and less than 60 hours
D: 20 hours or more and less than 40 hours […]

| SMILES | Fluorescence quantum yield [1] | Water solubility [2] | Light resistance (light exposure time until absorbance at absorption peak reaches 50%) [3] |
| --- | --- | --- | --- |
| CC1=CC(C)=[N+]2C1=C(C)c1c(C)cc(C)n1[B-]2(F)F [BODIPY493/503] | A (0.9 or more) | C (1 μM or more and less than 10 μM) | F (less than 10 hours) |
| Cc1cc(C)n2c1C=C1C=CC(CCC(=O)O)=[N+]1[B-]2(F)F [BODIPY FL] | B (0.7 or more and less than 0.9) | C (1 μM or more and less than 10 μM) | F (less than 10 hours) |
